In one data set the target is Cytochrome P450 3A4 (Homo sapiens, UniProt P08684). In words: (§1) Induction of CYP3A4 in human HepG2 cells at 10 uM after 24 hrs by luciferase reporter gene assay in presence of hPXR relative to control. The note with it: hepg2, 24 h, 10 µM. (In general: In a reporter assay the amount or activity of a reporter protein is the signal.)
The target in the next data set is CYP3A4 (Homo sapiens, UniProt P08684). The data set is described as §1. The note with it: HepG2 cells with hPXR and CYP3A4 luciferase reporter.
A further data set relates to Hepatocyte. In words: Induction of CYP3A4 mRNA expression in human primary hepatocytes at 10 uM after 24 hrs by RT-PCR analysis.

As a reminder, the fold induction is the ratio of treated to control signal.

Each structure is given as a SMILES string.

Cytochrome P450 3A4, sequence (P08684 whole entry): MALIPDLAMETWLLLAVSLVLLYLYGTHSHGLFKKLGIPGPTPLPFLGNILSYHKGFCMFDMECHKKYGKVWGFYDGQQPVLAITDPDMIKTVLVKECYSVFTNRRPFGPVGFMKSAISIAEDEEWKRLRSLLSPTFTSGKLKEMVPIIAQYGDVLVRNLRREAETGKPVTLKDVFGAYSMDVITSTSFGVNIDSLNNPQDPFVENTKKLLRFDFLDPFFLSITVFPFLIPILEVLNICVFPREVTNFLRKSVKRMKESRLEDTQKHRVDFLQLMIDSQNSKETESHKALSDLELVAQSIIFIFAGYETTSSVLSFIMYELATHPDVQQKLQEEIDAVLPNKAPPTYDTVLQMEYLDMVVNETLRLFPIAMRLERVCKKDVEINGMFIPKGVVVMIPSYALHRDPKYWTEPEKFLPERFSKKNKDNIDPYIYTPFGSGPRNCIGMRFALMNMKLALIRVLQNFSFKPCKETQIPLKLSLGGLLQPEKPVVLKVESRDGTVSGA
CYP3A4, sequence (P08684 whole entry): as above

For `CC(C)C1(CC[C@@H](C)[C@H]2CC[C@@]3(C)[C@@H]4CC[C@H]5C(C)(C)[C@@H](O)CC[C@@]56C[C@@]46CC[C@]23C)CO1` (mixture of isomers), the result on Cytochrome P450 3A4 was Active.

On to `C=C(C)[C@@H]1CC[C@]2(C)CC[C@]3(C)[C@H](CC[C@@H]4[C@@]5(C)CC[C@@H](O)C(C)(C)[C@@H]5CC[C@]43C)[C@@H]12`, for which, on Cytochrome P450 3A4, the Activity entry is on record as “Not Active”.

For the molecule `C=C(C)[C@@H]1CC[C@]2(C)CC[C@]3(C)[C@H](CC[C@@H]4[C@@]5(C)CC[C@H](O)C(C)(C)[C@@H]5CC[C@]43C)[C@@H]12` [LUPEOL], the Activity entry at Cytochrome P450 3A4 was “Not Active”.

`CC(=O)O[C@H]1CC[C@]2(C)C3=CC=C4[C@@H]5CC(C)(C)CC[C@]5(C)CC[C@@]4(C)[C@]3(C)CC[C@H]2C1(C)C`: on Cytochrome P450 3A4, the Activity result is on record as “Not Active”.

With `COC(CO)(CC[C@@H](C)[C@H]1CC[C@@]2(C)[C@@H]3CC[C@H]4C(C)(C)[C@@H](O)CC[C@@]45C[C@@]35CC[C@]12C)C(C)C` (mixture of isomers), the fold induction at 24 h, 10 µM on CYP3A4 was determined as 9.4. Also, the Activity entry in the data set on Hepatocyte is recorded as “Not Active”.

`CC(=O)O[C@H]1CC[C@]23C[C@]24CC[C@]2(C)[C@@H]([C@H](C)CCC(=O)C(C)C)CC[C@@]2(C)[C@@H]4CC[C@H]3C1(C)C`: the Activity result at Cytochrome P450 3A4 is “Not Active”.

Take `CC(C)C(=O)CC[C@@H](C)[C@H]1CC[C@@]2(C)[C@@H]3CC[C@H]4C(C)(C)[C@@H](O)CC[C@@]45C[C@@]35CC[C@]12C`: on CYP3A4, the fold induction at 24 h, 10 µM is 4. For the same molecule, the outcome in the data set with Hepatocyte was Active.

Turning to `C=C(CC[C@@H](C)[C@H]1CC[C@@]2(C)[C@@H]3CC[C@H]4C(C)(C)[C@@H](O)CC[C@@]45C[C@@]35CC[C@]12C)C(C)(C)O`, the fold induction at 24 h, 10 µM at CYP3A4 worked out at 4. Besides, the outcome in the data set on Hepatocyte was Active.

Source of the values: ChEMBL document CHEMBL3351565, “Cycloartane-type triterpenes from Euphorbia fischeriana stimulate human CYP3A4 promoter activity” (Bioorg Med Chem Lett, 2014).
